# Laboratory results taken from article PMC9913752, “Proof-of-Concept Study of an Alpha-Fetoprotein-Derived Peptide for the Management of Canine Mammary Cancer” (Animals : an Open Access Journal from MDPI, 2023).
# Where a SMILES comes first, the peptide text is derived from it. [ ]: non-standard residue; d: D form. Hyp = O=C(O)[C@@H]1C[C@@H](O)CN1
# Experiment: Clinical parameters in unanesthetized dogs
# Format: in vivo, dog
# [1] = unanesthetized dogs, 30 min Post AFPep, mean ± SE from 6 dogs
smiles,measurement,setting,value
CC(C)[C@@H]1NC(=O)[C@@H]2C[C@@H](O)CN2C(=O)[C@H]([C@@H](C)O)NC(=O)[C@H](CCCCN)NC(=O)[C@H](CCC(=O)O)NC(=O)[C@H](CC(N)=O)NC(=O)CNC(=O)[C@@H]2C[C@@H](O)CN2C(=O)[C@H](CC(N)=O)NC1=O [AFPep] (cyclo(EKT[Hyp]VN[Hyp]GN)),"other clinical indicators (mobility, playfulness, appetite, stool consistency, heart rate, respiration rate, capillary refill time, body temperature)",dogs,remained normal
same,reflux or vomiting after administration,dogs,no evidence of reflux or vomiting
same,Capillary refill time,"unanesthetized dogs, 30 min Post AFPep, 6 dogs",<2 s
same,Body temperature,"unanesthetized dogs, 30 min Post AFPep, mean from 6 dogs",39.0 °C
same,Heart Rate,[1],112 ± 5
same,Respiration Rate,[1],28 ± 4
